Assay results from US9988400B2 (Genentech, Inc., priority 2013, dated 2018).

Target: T1, HEK cells stably transfected with tetracycline inducible hNR1 and hNR2A (Homo sapiens, UniProt Q05586+Q12879)
T1 construct: expressed in transfected cells; host or cells: HEK cells, stably transfected, tetracycline/doxycycline inducible
Assay: Assay 1: Cell-Based Assay, cytosolic calcium response to positive allosteric modulators (with 30 μM glycine and 300 nM L-glutamate, EC30)
Details: for EC50: cytosolic calcium response, with 30 μM glycine and 300 nM L-glutamate (EC30), — = no plateau was reached; for Max %: responses scaled relative to 100 μM L-glutamate maximal response (100%) and 0 μM L-glutamate (0%)
Procedure, shortened: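 Cells induced 24 h with 7.5 μg mL^−1 doxycycline plus 500 μM (+)-ketamine, loaded 60 min at 37 °C with calcium dye in Mg-free HBSS (1.8 mM Ca, probenecid, 10 μM (+)-ketamine, pH 7.15). Peak RFU over 5 min after compound addition, scaled to 100 μM L-glutamate (100%) and 0 μM (0%); four-parameter Hill fit for EC50, max % if no plateau.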

T1 sequence (Q12879 23-1464, other chains not shown): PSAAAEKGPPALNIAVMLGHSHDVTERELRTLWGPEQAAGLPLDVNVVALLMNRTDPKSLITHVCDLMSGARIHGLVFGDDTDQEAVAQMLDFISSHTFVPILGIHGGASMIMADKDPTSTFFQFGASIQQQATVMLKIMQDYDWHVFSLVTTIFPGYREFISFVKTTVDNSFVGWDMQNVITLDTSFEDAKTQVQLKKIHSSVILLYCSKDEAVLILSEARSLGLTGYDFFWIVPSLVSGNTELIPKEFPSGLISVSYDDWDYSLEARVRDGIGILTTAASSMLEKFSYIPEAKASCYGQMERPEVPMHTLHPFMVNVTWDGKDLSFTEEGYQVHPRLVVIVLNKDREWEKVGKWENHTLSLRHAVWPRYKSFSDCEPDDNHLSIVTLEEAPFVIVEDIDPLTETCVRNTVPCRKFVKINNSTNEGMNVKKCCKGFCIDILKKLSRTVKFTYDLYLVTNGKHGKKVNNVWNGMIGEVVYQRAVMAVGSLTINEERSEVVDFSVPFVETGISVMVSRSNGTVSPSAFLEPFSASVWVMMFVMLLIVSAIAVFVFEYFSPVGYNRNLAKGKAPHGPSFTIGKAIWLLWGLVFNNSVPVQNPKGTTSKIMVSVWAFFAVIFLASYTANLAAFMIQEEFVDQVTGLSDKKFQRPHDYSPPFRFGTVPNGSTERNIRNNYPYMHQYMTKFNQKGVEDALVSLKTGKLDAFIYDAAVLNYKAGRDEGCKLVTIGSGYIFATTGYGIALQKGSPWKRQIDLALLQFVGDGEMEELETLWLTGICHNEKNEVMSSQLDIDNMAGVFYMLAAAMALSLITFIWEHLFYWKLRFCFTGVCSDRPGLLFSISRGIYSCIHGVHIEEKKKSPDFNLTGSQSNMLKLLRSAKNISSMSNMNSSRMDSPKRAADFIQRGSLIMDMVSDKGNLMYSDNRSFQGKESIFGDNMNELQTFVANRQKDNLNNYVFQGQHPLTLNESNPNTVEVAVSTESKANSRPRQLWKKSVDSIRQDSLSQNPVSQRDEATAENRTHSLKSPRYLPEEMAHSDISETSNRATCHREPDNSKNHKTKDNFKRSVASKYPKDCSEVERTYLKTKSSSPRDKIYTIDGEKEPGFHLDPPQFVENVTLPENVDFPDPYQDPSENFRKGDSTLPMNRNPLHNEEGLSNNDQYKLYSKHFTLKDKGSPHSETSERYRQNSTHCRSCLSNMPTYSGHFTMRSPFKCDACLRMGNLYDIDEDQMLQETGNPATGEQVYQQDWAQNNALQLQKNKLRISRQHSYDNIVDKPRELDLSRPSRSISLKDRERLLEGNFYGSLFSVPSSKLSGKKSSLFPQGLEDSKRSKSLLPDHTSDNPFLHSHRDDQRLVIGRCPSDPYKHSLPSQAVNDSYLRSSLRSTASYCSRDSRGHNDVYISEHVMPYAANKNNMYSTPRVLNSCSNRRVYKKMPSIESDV

In the case of `CCNC(=O)c1c(OC)sc2nc(Cn3nc(C4CC4)cc3C(F)(F)F)cc(=O)n12` [compound 130, 7-[[3-cyclopropyl-5-(trifluoromethyl)pyrazol-1-yl]methyl]-N-ethyl-2-methoxy-5-oxo-thiazolo[3,2-a]pyrimidine-3-carboxamide], the EC50 (Table 3) is reported as 6860 nM.

`Cc1sc2nc(Cn3nc(C(F)(F)F)cc3C3CC3)cc(=O)n2c1C(=O)NCC(F)(F)F` [compound 57, 7-[[5-cyclopropyl-3-(trifluoromethyl)pyrazol-1-yl]methyl]-2-methyl-5-oxo-N-(2,2,2-trifluoroethyl)thiazolo[3,2-a]pyrimidine-3-carboxamide] was tested, and the EC50 (Table 3) was 627 nM.

In the case of `N#CC1CC1c1c(Cl)sc2nc(Cn3nc(C(F)(F)F)cc3Cl)cc(=O)n12` (stereo not shown) [compound 267], the EC50 (Table 3) is reported as 157 nM.

`CCN(Cc1cc(=O)n2c(CCCOC)c(C)sc2n1)c1ccc(F)cc1` [Example 13.2, 7-((Ethyl(4-fluorophenyl)amino)methyl)-3-(3-methoxypropyl)-2-methyl-5H-thiazolo[3,2-a]pyrimidin-5-one] showed an EC50 (Table 2) of 913 nM and a Max % (Table 2) of 130%.

For `CCN(Cc1cc(=O)n2c(CCO)c(C)sc2n1)c1ccc(F)cc1` [Example 13.4, 7-((Ethyl(4-fluorophenyl)amino)methyl)-3-(2-hydroxyethyl)-2-methyl-5H-thiazolo[3,2-a]pyrimidin-5-one], the EC50 (Table 2) was 777 nM and the Max % (Table 2) was 185%.

Molecule `Cc1sc2nc(Cn3nc(C(F)(F)F)cc3Cl)cc(=O)n2c1C1CCC1` [compound 188, 7-[[5-chloro-3-(trifluoromethyl)pyrazol-1-yl]methyl]-3-cyclobutyl-2-methyl-thiazolo[3,2-a]pyrimidin-5-one] has an EC50 (Table 3) of 3140 nM.

`CCNC(=O)c1c(C)sc2nc(CN(CC)c3ccc(Br)cn3)cc(=O)n12` [compound 204, 7-[[(5-bromo-2-pyridyl)-ethyl-amino]methyl]-N-ethyl-2-methyl-5-oxo-thiazolo[3,2-a]pyrimidine-3-carboxamide] was tested, and the EC50 (Table 3) was 5120 nM.

`Cc1ccc(C#N)cc1Cc1cc(=O)n2c([C@@H]3C[C@H]3CO)c(C)sc2n1` (relative stereo) [Example 20.6, 3-((3-(trans-2-(hydroxymethyl)cyclopropyl)-2-methyl-5-oxo-5H-thiazolo[3,2-a]pyrimidin-7-yl)methyl)-4-methylbenzonitrile] showed an EC50 (Table 2) of 7200 nM and a Max % (Table 2) of 137%.

`Cc1sc2nc(Cc3cccc(C(F)(F)F)c3F)cc(=O)n2c1C#N` [Example 26.2, 7-(2-fluoro-3-(trifluoromethyl)benzyl)-2-methyl-5-oxo-5H-thiazolo[3,2-a]pyrimidine-3-carbonitrile] showed an EC50 (Table 2) of 9000 nM.

Work on `Cc1sc2nc(Oc3cccc(C(F)(F)F)c3F)cc(=O)n2c1C1CC1` [compound 73, 3-cyclopropyl-7-[2-fluoro-3-(trifluoromethyl)phenoxy]-2-methyl-thiazolo[3,2-a]pyrimidin-5-one] yielded an EC50 (Table 3) of 40100 nM.

For `CCNC(=O)c1c(OCC)sc2nc(Cn3nc(C(F)(F)F)cc3Cl)cc(=O)n12` [compound 175, 7-[[5-chloro-3-(trifluoromethyl)pyrazol-1-yl]methyl]-2-ethoxy-N-ethyl-5-oxo-thiazolo[3,2-a]pyrimidine-3-carboxamide], the EC50 (Table 3) was 864 nM.

`CCN(Cc1cc(=O)n2c(CCOC)c(C)sc2n1)c1ccc(F)cc1` [Example 13.5, 7-[[Ethyl(4-fluorophenyl)amino]methyl]-3-(2-methoxyethyl)-2-methyl-5H-[1,3]thiazolo[3,2-a]pyrimidin-5-one] gave an EC50 (Table 2) of 1000 nM and a Max % (Table 2) of 152%.

`Cc1sc2nc(CN(CCF)c3ccc(F)cc3)cc(=O)n2c1C1CC1CO` (single isomer, unassigned) [Example 5.42, 7-[[4-fluoro-N-(2-fluoroethyl)anilino]methyl]-3-trans-2-(hydroxymethyl)cyclopropyl]-2-methyl-thiazolo[3,2-a]pyrimidin-5-one] showed an EC50 (Table 2) of 32.9 nM and a Max % (Table 2) of 162%.

Molecule `Cc1sc2nc(CN(CC(F)(F)F)c3ccc(F)cc3)cc(=O)n2c1-c1cncnc1` [Example 5.3, 7-(((4-fluorophenyl)(2,2,2-trifluoroethyl)amino)methyl)-2-methyl-3-(pyrimidin-5-yl)-5H-thiazolo [3,2-a]pyrimidin-5-one] has an EC50 (Table 2) of 2200 nM and a Max % (Table 2) of 177%.

`CNC(=O)c1c(C)sc2nc(Cc3cc(F)c(F)cc3OC)cc(=O)n12` [compound 9, 7-[(4,5-difluoro-2-methoxy-phenyl)methyl]-N,2-dimethyl-5-oxo-thiazolo[3,2-a]pyrimidine-3-carboxamide] gave an EC50 (Table 3) of 8040 nM.

`Cc1sc2nc(COc3ccc(F)cc3)cc(=O)n2c1C1CC1` [Example 4.17, 3-cyclopropyl-7-[(4-fluorophenoxy)methyl]-2-methyl-thiazolo[3,2-a]pyrimidin-5-one] gave a Max % (Table 2) of 40.3%.

With `CC1CC1c1c(C(F)(F)F)sc2nc(Cc3cccc(C#N)c3F)cc(=O)n12` (stereo not shown) [compound 84, 2-fluoro-3-[[3-(2-methylcyclopropyl)-5-oxo-2-(trifluoromethyl)thiazolo[3,2-a]pyrimidin-7-yl]methyl]benzonitrile] the EC50 (Table 3) was 11200 nM.

In the case of `Cc1sc2nc(Cn3nc(C(F)(F)F)cc3Cl)cc(=O)n2c1C1CC1C#N` (single isomer, unassigned) [compound 125], the EC50 (Table 3) is reported as 27.8 nM.

Work on `Cc1sc2nc(Cn3nc(C4CC4)c(F)c3C(F)(F)F)cc(=O)n2c1C1CC1CO` (stereo not drawn) [Example 15.9, 7-((3-cyclopropyl-4-fluoro-5-(trifluoromethyl)-1H-pyrazol-1-yl)methyl)-3-(trans-2-(hydroxymethyl)cyclopropyl)-2-methyl-5H-thiazolo[3,2-a]pyrimidin-5-one] yielded an EC50 (Table 2) of 18600 nM and a Max % (Table 2) of 117%.

Work on `Cc1sc2nc(Cn3nc(Cl)cc3N)cc(=O)n2c1Br` [compound 228, 7-[(5-amino-3-chloro-pyrazol-1-yl)methyl]-3-bromo-2-methyl-thiazolo[3,2-a]pyrimidin-5-one] yielded an EC50 (Table 3) of 32200 nM.

`CCN(Cc1cc(=O)n2c(-c3cn[nH]c3)c(C)sc2n1)c1ccc(F)cc1` [Example 5.34, 7-[(N-ethyl-4-fluoro-anilino)methyl]-2-methyl-3-(1H-pyrazol-4-yl)thiazolo[3,2-a]pyrimidin-5-one] gave an EC50 (Table 2) of 2800 nM and a Max % (Table 2) of 118%.

`CCc1sc2nc(CN(CC)c3ccc(F)cc3)cc(=O)n2c1-c1cncnc1` [Example 5.16, 2-ethyl-7-((ethyl(4-fluorophenyl)amino)methyl)-3-(pyrimidin-5-yl)-5H-thiazolo[3,2-a]pyrimidin-5-one] showed an EC50 (Table 2) of 2500 nM and a Max % (Table 2) of 157%.

Molecule `Cc1sc2nc(COc3ccc(C(F)(F)F)cc3)cc(=O)n2c1[C@@H]1C[C@H]1CO` (relative stereo) [Example 4.10, 3-(trans-2-(hydroxymethyl)cyclopropyl)-2-methyl-7-((4-(trifluoromethyl)phenoxy)methyl)-5H-thiazolo[3,2-a] pyrimidin-5-one] has an EC50 (Table 2) of 4300 nM and a Max % (Table 2) of 108%.

`Cc1sc2nc(Cc3nc(C(F)(F)F)cs3)cc(=O)n2c1C1CC1CO` (stereo not shown) [compound 24, 3-[2-(Hydroxymethyl)cyclopropyl]-2-methyl-7-[[4-(trifluoromethyl)thiazol-2-yl]methyl]thiazolo[3,2-a]pyrimidin-5-one] gave an EC50 (Table 3) of 1330 nM.

With `N#CC1CC1c1c(C(F)(F)F)sc2nc(Cc3cccc(C(F)(F)F)c3F)cc(=O)n12` (stereo not shown) [compound 94, 2-[7-[[2-fluoro-3-(trifluoromethyl)phenyl]methyl]-5-oxo-2-(trifluoromethyl)thiazolo[3,2-a]pyrimidin-3-yl]cyclopropanecarbonitrile] the EC50 (Table 3) was 2080 nM.

For `CCNC(=O)c1c(C)sc2nc(Cc3cccc(C(F)(F)F)c3F)cc(=O)n12` [Example 21.12, N-ethyl-7-(2-fluoro-3-(trifluoromethyl)benzyl)-2-methyl-5-oxo-5H-thiazolo[3,2-a]pyrimidine-3-carboxamide], the EC50 (Table 2) was 6700 nM.

Work on `Cc1sc2nc(Cc3cccc(C#N)c3)cc(=O)n2c1C1CC1CO` (stereo not drawn) [Example 20.1, 3-((3-(trans-2-(hydroxymethyl)cyclopropyl)-2-methyl-5-oxo-5H-thiazolo[3,2-a]pyrimidin-7-yl)methyl)benzonitrile] yielded an EC50 (Table 2) of 3100 nM and a Max % (Table 2) of 137%.

`CCNC(=O)c1c(C(F)(F)F)sc2nc(Cn3nc(C(F)(F)F)cc3C3CC3)cc(=O)n12` [Example 16.3, 7-((5-cyclopropyl-3-(trifluoromethyl)-1H-pyrazol-1-yl)methyl)-N-ethyl-5-oxo-2-(trifluoromethyl)-5H-thiazolo[3,2-a]pyrimidine-3-carboxamide] showed an EC50 (Table 2) of 1400 nM and a Max % (Table 2) of 160%.

For `Cc1sc2nc(CN3c4ccccc4CC3C)cc(=O)n2c1C#N` (stereo not shown) [Example 7.8, 2-methyl-7-((2-methylindolin-1-yl)methyl)-5-oxo-5H-thiazolo[3,2-a]pyrimidine-3-carbonitrile], the EC50 (Table 2) was 2500 nM and the Max % (Table 2) was 126%.

`Cc1sc2nc(Oc3cccc(C#N)c3F)cc(=O)n2c1C1CC1C(F)(F)F` (stereo not shown) [compound 77, 2-fluoro-3-[2-methyl-5-oxo-3-[2-(trifluoromethyl)cyclopropyl]thiazolo[3,2-a]pyrimidin-7-yl]oxy-benzonitrile] was tested, and the EC50 (Table 3) was 271 nM.

For `Cc1sc2nc(Cn3nc(CCO)cc3C(F)(F)F)cc(=O)n2c1[C@@H]1C[C@H]1CO` (relative stereo) [Example 15.8, 7-((3-(2-hydroxyethyl)-5-(trifluoromethyl)-1H-pyrazol-1-yl)methyl)-3-(trans-2-(hydroxymethyl)cyclopropyl)-2-methyl-5H-thiazolo[3,2-a]pyrimidin-5-one], the EC50 (Table 2) was 30800 nM and the Max % (Table 2) was 122%.

`O=c1cc(Cn2nc(C(F)(F)F)cc2Cl)nc2sc(C(F)(F)F)c([C@@H]3C[C@H]3CO)n12` (single isomer, unassigned) [compound 269] showed an EC50 (Table 3) of 83.1 nM.
